Experimental data from PMC6718736, “Validation of in vitro methods for human cytochrome P450 enzyme induction: Outcome of a multi-laboratory study” (Toxicology in Vitro, 2019).
Like-named read-outs stand apart in the source and are kept apart here.

Tests used:
[1] = cited from earlier work
CYP3A4 [2] = assay: CYP3A4 enzyme induction assay in cryopreserved primary human hepatocytes (PHH); conditions: for Assigned classification CYP3A4: PHH
CYP3A4 [3] = conditions: cited from earlier work
CYP1A2 [4] = assay: CYP1A2 enzyme induction assay in cryopreserved primary human hepatocytes (PHH); format: in vitro ADME; conditions: for Prediction in vivo inducer: Cmax/F2 >0.5 criterion; for Assigned classification CYP1A2: PHH;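 as to Assigned classification CYP1A2: code 1 means positive inducer and 0 means non-inducer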
CYP1A2 [5] = assay: CYP1A2 enzyme induction assay in cryopreserved HepaRG cells (phenacetin probe, LC/MS); format: in vitro ADME, human; conditions: for Assigned classification CYP1A2: HepaRG; as to Assigned classification CYP1A2: key: 1=Positive=inducer; 0=Negative=non-inducer
CYP = CYP isoforms induced; ref Abadie et al. (2009), Richert et al. (2010), Preissner et al. (2010), Hoffmann et al. (2014); cited from earlier work
CYP2B6 [6] = assay: CYP2B6 enzyme induction assay in cryopreserved primary human hepatocytes (PHH); format: in vitro ADME; conditions: for Assigned classification CYP2B6: PHH;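 as to Assigned classification CYP2B6: code 1 means positive inducer and 0 means non-inducer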
[7] = Solubility by visual inspection (DMSO stock solution and assay medium); format: physicochemical; conditions: assay medium
Protocol: The SOPs relied on visual inspection for solubility observation. […] The absence of precipitation in the medium was checked pre- and post-incubation (24 hours) by centrifugation of the sample and observation of any precipitation (pellet residue).

CYP2B6 [8] = assay: CYP2B6 enzyme induction assay in cryopreserved HepaRG cells (bupropion probe, LC/MS); format: in vitro ADME, human; conditions: for Prediction in vivo inducer: Cmax/F2 >0.5 criterion; for Assigned classification CYP2B6: HepaRG; as to Assigned classification CYP2B6: key: 1=Positive=inducer; 0=Negative=non-inducer
[9] = Solubility by nephelometry (EURL ECVAM); format: physicochemical
Description: In addition to the visual inspection performed by the validation laboratories as described in the SOP, EURL ECVAM introduced nephelometry for systematic solubility determination of the 13 validation set chemicals. Nephelometry uses a laser beam and the principle of Tyndall effect light scatter to detect turbidity due to insolubility. The nephelometer method used formazin as reference item (1, 5, 10 and 20 nephelometric turbidity units (NTU)) to calculate the relative turbidity (RTU) of the validation set of chemicals. To the naked eye, 20 NTU is perceptible, while the nephelometer was sensitive to 5 NTU, with 1 NTU equivalent to background (solvent/medium blank).

CYP2B6 [10] = conditions: cited from earlier work
CYP1A2 [11] = conditions: cited from earlier work
CYP3A4 [12] = assay: CYP3A4 enzyme induction assay in cryopreserved HepaRG cells (midazolam probe, LC/MS); format: in vitro ADME, human; conditions: for Assigned classification CYP3A4: HepaRG; as to Assigned classification CYP3A4: key: 1=Positive=inducer; 0=Negative=non-inducer
[13] = human in vivo, CYP named without remark = induced, ref references in the cell, Washington University database, Hoffmann et al. (2014), Pelkonen et al. (2008), Hukkanen et al. (2012)

F2 (CYP3A4 [2]; CYP3A4, PHH): 1.80 to 16.2 µM
Induction in vitro (CYP3A4 [2]; CYP3A4, PHH): Yes
Prediction in vivo inducer (CYP3A4 [2]; CYP3A4, PHH): Yes
Assigned classification CYP3A4 (CYP3A4 [2]; Lab 1, batch 0 6 A): 1
Assigned classification CYP3A4 (CYP3A4 [2]; Lab 1, batch 4 0 8): 0
Assigned classification CYP3A4 (CYP3A4 [2]; Lab 1, batch 8 0 8): 1
Assigned classification CYP3A4 (CYP3A4 [2]; Lab 2, batch 0 6 A): 1
Assigned classification CYP3A4 (CYP3A4 [2]; Lab 2, batch 4 0 8): 1
Assigned classification CYP3A4 (CYP3A4 [2]; Lab 2, batch 8 0 8): 1
Assigned classification CYP3A4 (CYP3A4 [2]; Lab 3, batch 0 6 A): 1
Assigned classification CYP3A4 (CYP3A4 [2]; Lab 3, batch 4 0 8): 1
Assigned classification CYP3A4 (CYP3A4 [2]; Lab 3, batch 8 0 8): 1
Prediction in vivo inducer (CYP1A2 [4]; CYP1A2, PHH, listed as Phenytoin): Yes
Prediction in vivo inducer (CYP1A2 [4]; CYP1A2, PHH, listed as phenytoin): correctly predicted CYP1A2 induction
F2 (CYP1A2 [4]; CYP1A2, PHH, in vitro concentration producing 2-fold induction): 16.2 to 48.6 µM
Induction in vitro (CYP1A2 [4]; CYP1A2, PHH, positive in one donor in each of the three laboratories): Yes
Assigned classification CYP1A2 (CYP1A2 [4]; Lab 1, batch 0 6 A): 1
Assigned classification CYP1A2 (CYP1A2 [4]; Lab 1, batch 4 0 8): 0
Assigned classification CYP1A2 (CYP1A2 [4]; Lab 1, batch 8 0 8): 0
Assigned classification CYP1A2 (CYP1A2 [4]; Lab 2, batch 0 6 A): 1
Assigned classification CYP1A2 (CYP1A2 [4]; Lab 2, batch 4 0 8): 0
Assigned classification CYP1A2 (CYP1A2 [4]; Lab 2, batch 8 0 8): 0
Assigned classification CYP1A2 (CYP1A2 [4]; Lab 3, batch 0 6 A): 1
Assigned classification CYP1A2 (CYP1A2 [4]; Lab 3, batch 4 0 8): 1
Assigned classification CYP1A2 (CYP1A2 [4]; Lab 3, batch 8 0 8): 0
Prediction in vivo inducer (CYP1A2 [5]; CYP1A2, HepaRG cells, Cmax/F2 >0.5 criterion): Yes
F2 (CYP1A2 [5]; CYP1A2, HepaRG cells, in vitro concentration producing 2-fold induction): 36.5 µM
Induction in vitro (CYP1A2 [5]; CYP1A2, HepaRG cells, positive in one batch in each of the three laboratories): Yes
Assigned classification CYP1A2 (CYP1A2 [5]; Lab 1, batch 20): 1
Assigned classification CYP1A2 (CYP1A2 [5]; Lab 1, batch 35): 1
Assigned classification CYP1A2 (CYP1A2 [5]; Lab 1, batch 36): 1
Assigned classification CYP1A2 (CYP1A2 [5]; Lab 2, batch 20): 1
Assigned classification CYP1A2 (CYP1A2 [5]; Lab 2, batch 35): 1
Assigned classification CYP1A2 (CYP1A2 [5]; Lab 2, batch 36): 1
Assigned classification CYP1A2 (CYP1A2 [5]; Lab 3, batch 20): 1
Assigned classification CYP1A2 (CYP1A2 [5]; Lab 3, batch 35): 0
Assigned classification CYP1A2 (CYP1A2 [5]; Lab 3, batch 36): 1
F2 (CYP2B6 [6]; CYP2B6, PHH): 0.60 to 48.6 µM
Induction in vitro (CYP2B6 [6]; CYP2B6, PHH): Yes
Prediction in vivo inducer (CYP2B6 [6]; CYP2B6, PHH): Yes
Prediction in vivo inducer (CYP2B6 [6]; CYP2B6, PHH, Cmax/F2 >0.5 criterion): positive
Assigned classification CYP2B6 (CYP2B6 [6]; Lab 1, batch 0 6 A): 1
Assigned classification CYP2B6 (CYP2B6 [6]; Lab 1, batch 4 0 8): 1
Assigned classification CYP2B6 (CYP2B6 [6]; Lab 1, batch 8 0 8): 0
Assigned classification CYP2B6 (CYP2B6 [6]; Lab 2, batch 0 6 A): 1
Assigned classification CYP2B6 (CYP2B6 [6]; Lab 2, batch 4 0 8): 1
Assigned classification CYP2B6 (CYP2B6 [6]; Lab 2, batch 8 0 8): 0
Assigned classification CYP2B6 (CYP2B6 [6]; Lab 3, batch 0 6 A): 1
Assigned classification CYP2B6 (CYP2B6 [6]; Lab 3, batch 4 0 8): 1
Assigned classification CYP2B6 (CYP2B6 [6]; Lab 3, batch 8 0 8): 1
HepaRG medium stability ([7]; Lab 1, visual observation): 40 µg/mL
HepaRG medium stability ([7]; Lab 2, visual observation): 20 µg/mL
HepaRG medium stability ([7]; Lab 3, visual observation): 40 µg/mL
PHH medium stability ([7]; Lab 4, visual observation): 40 µg/mL
PHH medium stability ([7]; Lab 5, visual observation): 20 µg/mL
PHH medium stability ([7]; Lab 6, visual observation): 10 µg/mL
Prediction in vivo inducer (CYP2B6 [8]; CYP2B6, HepaRG cells, listed as Phenytoin): Yes
Prediction in vivo inducer (CYP2B6 [8]; CYP2B6, HepaRG cells, listed as phenytoin): correctly classified
F2 (CYP2B6 [8]; CYP2B6, HepaRG cells, in vitro concentration producing 2-fold induction): 1.35 µM
Induction in vitro (CYP2B6 [8]; CYP2B6, HepaRG cells, positive in one batch in each of the three laboratories): Yes
Assigned classification CYP2B6 (CYP2B6 [8]; Lab 1, batch 20): 1
Assigned classification CYP2B6 (CYP2B6 [8]; Lab 1, batch 35): 1
Assigned classification CYP2B6 (CYP2B6 [8]; Lab 1, batch 36): 1
Assigned classification CYP2B6 (CYP2B6 [8]; Lab 2, batch 20): 1
Assigned classification CYP2B6 (CYP2B6 [8]; Lab 2, batch 35): 1
Assigned classification CYP2B6 (CYP2B6 [8]; Lab 2, batch 36): 1
Assigned classification CYP2B6 (CYP2B6 [8]; Lab 3, batch 20): 1
Assigned classification CYP2B6 (CYP2B6 [8]; Lab 3, batch 35): 1
Assigned classification CYP2B6 (CYP2B6 [8]; Lab 3, batch 36): 1
nephelometry finding in assay medium ([9]; 40 μg/ml, the two media): insoluble suspensions
HepaRG medium stability ([9]; ECVAM nephelometry, HepaRG medium, ^2 = solubility limit): 40 µg/mL
PHH medium stability ([9]; ECVAM nephelometry, PHH medium, ^2 = solubility limit): 20 µg/mL
F2 (CYP3A4 [12]; CYP3A4, HepaRG cells): 12.2 µM
Induction in vitro (CYP3A4 [12]; CYP3A4, HepaRG cells): Yes
Prediction in vivo inducer (CYP3A4 [12]; CYP3A4, HepaRG cells): Yes
Assigned classification CYP3A4 (CYP3A4 [12]; Lab 1, batch 20): 1
Assigned classification CYP3A4 (CYP3A4 [12]; Lab 1, batch 35): 1
Assigned classification CYP3A4 (CYP3A4 [12]; Lab 1, batch 36): 1
Assigned classification CYP3A4 (CYP3A4 [12]; Lab 2, batch 20): 1
Assigned classification CYP3A4 (CYP3A4 [12]; Lab 2, batch 35): 1
Assigned classification CYP3A4 (CYP3A4 [12]; Lab 2, batch 36): 1
Assigned classification CYP3A4 (CYP3A4 [12]; Lab 3, batch 20): 1
Assigned classification CYP3A4 (CYP3A4 [12]; Lab 3, batch 35): 1
Assigned classification CYP3A4 (CYP3A4 [12]; Lab 3, batch 36): 1
Structure (SMILES): O=C1NC(=O)C(c2ccccc2)(c2ccccc2)N1 [Phenytoin sodium]
Cmax ([1]; human in vivo plasma concentration, normal dose): 40 to 80 µM
Cmax ([1]; human in vivo, normal dose (Table 10)): 40 to 80 µM
Induction in vivo (CYP3A4 [3]; CYP3A4, human in vivo reference classification (Table 11)): Yes
CYP induction in vivo literature reference: CYP3A4 (CYP3A4 [3]; [13]): CYP3A4
CYP induction in vitro (human hepatocytes) (CYP): CYP1A2, CYP2B6, CYP3A4
Induction in vivo (CYP2B6 [10]; CYP2B6, human in vivo reference classification): Yes
Induction in vivo (CYP2B6 [10]; CYP2B6, human, ref Table 1): Yes
CYP induction in vivo literature reference: CYP2B6 (CYP2B6 [10]; [13]): CYP2B6
Induction in vivo (CYP1A2 [11]; CYP1A2, human, ref Table 1): Yes
CYP induction in vivo literature reference: CYP1A2 (CYP1A2 [11]; [13]): CYP1A2
